According to US8956999B2, “Herbicides” (Syngenta Limited, priority 2007, dated 2015):

Columns and labels:
Assay type in all cases: in vivo
[1] = test system: Alopecurus myosuroides (ALOMY); assay: Example A post-emergence herbicidal test, glasshouse; conditions: rate 125 g/ha, evaluated 14 or 15 days later, 100=total damage to plant, 0=no damage to plant
Description: (§1) Seeds of a variety of test species were sown in standard soil in pots. After cultivation for one day (pre-emergence) or after 10 days cultivation (post-emergence) under controlled conditions in a glasshouse, the plants were sprayed with an aqueous spray solution derived from the formulation of the technical active ingredient in 0.6 ml acetone and 45 ml formulation solution containing 10.6% Emulsogen EL (Registry number 61791-12-6), 42.2% N-methylpyrrolidone, 42.2% dipropylene glycol monomethyl ether (Registry number 34590-94-8) and 0.2% X-77 (Registry number 11097-66-8). The test plants were then grown in a greenhouse under optimum conditions until, 14 or 15 days later for post-emergence and 20 days for pre-emergence, the test was evaluated (100=total damage to plant; 0=no damage to plant). Test Plants: Alopecurus myosuroides (ALOMY), Avena fatua (AVEFA), Lolium perenne (LOLPE), Setaria faberi (SETFA), Digitaria sanguinalis (DIGSA), Echinochloa crus-galli (ECHCG)

Avena fatua (AVEFA) [2] = assay: as above; conditions: rate 125 g/ha, evaluated 14 or 15 days later, 100=total damage to plant, 0=no damage to plant
Description: as §1

Lolium perenne (LOLPE) [3] = assay: as above; conditions: rate 125 g/ha, evaluated 14 or 15 days later, 100=total damage to plant, 0=no damage to plant
Description: as §1

Setaria faberi (SETFA) [4] = assay: as above; conditions: rate 125 g/ha, evaluated 14 or 15 days later, 100=total damage to plant, 0=no damage to plant
Description: as §1

[5] = test system: Echinochloa crus-galli (ECHCG); assay: as above; conditions: rate 125 g/ha, evaluated 14 or 15 days later, 100=total damage to plant, 0=no damage to plant
Description: as §1

[6] = test system: Digitaria sanguinalis (DIGSA); assay: as above; conditions: rate 125 g/ha, evaluated 14 or 15 days later, 100=total damage to plant, 0=no damage to plant
Description: as §1

[7] = test system: Alopecurus myosuroides (ALOMY); assay: Example A pre-emergence herbicidal test, glasshouse; conditions: rate 250 g/ha, evaluated after 20 days, 100=total damage to plant, 0=no damage to plant
Description: as §1

Avena fatua (AVEFA) [8] = assay: as above; conditions: rate 250 g/ha, evaluated after 20 days, 100=total damage to plant, 0=no damage to plant
Description: as §1

Lolium perenne (LOLPE) [9] = assay: as above; conditions: rate 250 g/ha, evaluated after 20 days, 100=total damage to plant, 0=no damage to plant
Description: as §1

Setaria faberi (SETFA) [10] = assay: as above; conditions: rate 250 g/ha, evaluated after 20 days, 100=total damage to plant, 0=no damage to plant
Description: as §1

[11] = test system: Echinochloa crus-galli (ECHCG); assay: as above; conditions: rate 250 g/ha, evaluated after 20 days, 100=total damage to plant, 0=no damage to plant
Description: as §1

[12] = test system: Digitaria sanguinalis (DIGSA); assay: as above; conditions: rate 250 g/ha, evaluated after 20 days, 100=total damage to plant, 0=no damage to plant
Description: as §1

[13] = test system: Alopecurus myosuroides (ALOMY); assay: Example B post-emergence herbicidal test, glasshouse; conditions: 312 h, rate 1000 g/ha, evaluated after 13 days, read-out: Post-Emergence Activity ALOMY (100=total damage to plant; 0=no damage to plant)
Summary of the method: (§2)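 A 0.5% Tween 20 acetone/water (50:50) formulation, diluted in water, is sprayed onto potted plants one day after sowing or after 8 days of growth. Plants are kept at 24/16 °C day/night with 14 h light and 65% humidity. Damage is rated 0–100 after 13 days.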

Avena fatua (AVEFA) [14] = assay: as above; conditions: 312 h, rate 1000 g/ha, evaluated after 13 days, read-out: Post-Emergence Activity AVEFA (100=total damage to plant; 0=no damage to plant)
Summary of the method: as §2

Solanum nigrum (SOLNI) = assay: as above; conditions: 312 h, rate 1000 g/ha, evaluated after 13 days, read-out: Post-Emergence Activity SOLNI (100=total damage to plant; 0=no damage to plant)
Summary of the method: as §2

Setaria faberi (SETFA) [15] = assay: as above; conditions: 312 h, rate 1000 g/ha, evaluated after 13 days, read-out: Post-Emergence Activity SETFA (100=total damage to plant; 0=no damage to plant)
Summary of the method: as §2

[16] = test system: Amaranthus retoflexus (AMARE); assay: as above; conditions: Amaranthus retroflexus, 312 h, rate 1000 g/ha, evaluated after 13 days, read-out: Post-Emergence Activity AMARE (100=total damage to plant; 0=no damage to plant)
Summary of the method: as §2

[17] = test system: Echinochloa crus-galli (ECHCG); assay: as above; conditions: 312 h, rate 1000 g/ha, evaluated after 13 days, read-out: Post-Emergence Activity ECHCG (100=total damage to plant; 0=no damage to plant)
Summary of the method: as §2

| SMILES | Post-Emergence Activity ALOMY [1] | Post-Emergence Activity AVEFA (Avena fatua (AVEFA) [2]) | Post-Emergence Activity LOLPE (Lolium perenne (LOLPE) [3]) | Post-Emergence Activity SETFA (Setaria faberi (SETFA) [4]) | Post-Emergence Activity ECHCG [5] | Post-Emergence Activity DIGSA [6] | Pre-Emergence Activity ALOMY [7] | Pre-Emergence Activity AVEFA (Avena fatua (AVEFA) [8]) | Pre-Emergence Activity LOLPE (Lolium perenne (LOLPE) [9]) | Pre-Emergence Activity SETFA (Setaria faberi (SETFA) [10]) | Pre-Emergence Activity ECHCG [11] | Pre-Emergence Activity DIGSA [12] | pest or weed control at 1000 g/ha [13] | pest or weed control at 1000 g/ha (Avena fatua (AVEFA) [14]) | pest or weed control at 1000 g/ha (Solanum nigrum (SOLNI)) | pest or weed control at 1000 g/ha (Setaria faberi (SETFA) [15]) | pest or weed control at 1000 g/ha [16] | pest or weed control at 1000 g/ha [17] |
| --- | --- | --- | --- | --- | --- | --- | --- | --- | --- | --- | --- | --- | --- | --- | --- | --- | --- | --- |
| CCc1sc(-c2ccc(Cl)cc2)nc1C1C(=O)C(C)(C)C(=O)C(C)(C)C1=O [Compound T6] | 70 | 60 | 30 | 70 | 70 | 70 | 50 | 20 | 80 | 60 | 50 | 70 | 90% | 90% | 0% | 100% | 0% | 90% |
| CCc1sc(-c2ccc(Cl)cc2)nc1C1C(=O)C(C)(C)OC(C)(C)C1=O [Compound T11, 4-[2-(4-chlorophenyl)-5-ethylthiazol-4-yl]-2,2,6,6-tetramethylpyran-3,5-dione] | 90 | 80 | 60 | 100 | 100 | 100 | 100 | 100 | 100 | 100 | 100 | 100 | – | – | – | – | – | – |
| Cc1sc(-c2ccc(Cl)cc2)cc1C1C(=O)C(C)(C)OC(C)(C)C1=O [Compound T12] | 80 | 70 | 70 | 80 | 100 | 90 | 30 | 0 | 0 | 0 | 40 | 20 | – | – | – | – | – | – |
| Cc1sc(-c2ccc(Cl)cc2)nc1C1C(=O)C(C)(C)OC(C)(C)C1=O [Compound T13] | 90 | 80 | 70 | 100 | 100 | 100 | 100 | 50 | 100 | 100 | 100 | 100 | – | – | – | – | – | – |
| Cc1[se]c(-c2ccc(Cl)cc2)nc1C1C(=O)C(C)(C)OC(C)(C)C1=O [Compound T16, 5-[2-(4-chlorophenyl)-5-methylselenazol-4-yl]-2,2,6,6-tetramethylpyran-3,5-dione] | 70 | 70 | 60 | 90 | 100 | 90 | 90 | 50 | 100 | 0 | 60 | 100 | – | – | – | – | – | – |
